Assay results as given in ChEMBL document CHEMBL1157780, “Synthesis, chiral high performance liquid chromatographic resolution and enantiospecific activity of a potent new geranylgeranyl transferase inhibitor, 2-hydroxy-3-imidazo[1,2-a]pyridin-3-yl-2-phosphonopropionic acid” (J Med Chem, 2010).
Calls of active or inactive are those of the source. The rule behind the calls is not given here.

What was measured:
J774 [1] = assay: Inhibition of RGGT-mediated Rap1A prenylation in mouse J774 cells after 24 hrs by Western blot analysis; format: cell-based
J774 [2] = assay: Inhibition of RGGT-mediated Rab11 prenylation in mouse J774 cells after 24 hrs by Western blot analysis; format: cell-based
[3] = molecular target: T1, Farnesyl pyrophosphate synthase (Homo sapiens, UniProt P14324); assay: Inhibition of human FPPS after 10 mins using [14C]IPP as substrate by liquid scintillation counting
T1 sequence (P14324 whole entry): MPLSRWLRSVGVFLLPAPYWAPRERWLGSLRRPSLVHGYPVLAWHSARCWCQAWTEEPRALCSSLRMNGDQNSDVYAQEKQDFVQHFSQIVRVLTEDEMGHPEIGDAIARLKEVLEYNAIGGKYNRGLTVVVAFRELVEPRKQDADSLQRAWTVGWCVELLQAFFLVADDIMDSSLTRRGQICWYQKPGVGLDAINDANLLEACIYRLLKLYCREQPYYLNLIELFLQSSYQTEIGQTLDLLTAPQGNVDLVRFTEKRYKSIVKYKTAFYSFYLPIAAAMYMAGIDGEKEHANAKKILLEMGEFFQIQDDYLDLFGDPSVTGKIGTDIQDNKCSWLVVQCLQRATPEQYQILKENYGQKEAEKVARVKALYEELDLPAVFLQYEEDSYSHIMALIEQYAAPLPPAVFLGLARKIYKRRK

[4] = Inhibition of recombinant RGGT assessed as incorporation of [3H]GGPP into His-tagged canine rab1a after 30 mins
J774 [5] = assay: Cytotoxicity against mouse J774 cells assessed as cell viability after 48 hrs by alamar blue assay; format: functional, cell-based
[6] = Inhibition of GGTase1 assessed as incorporation of [3H]GGPP into His-tagged canine rab1a after 30 mins
Osteoclast = assay: Antiresorptive activity in rabbit osteoclasts assessed as number of actin rings after 48 hrs using TRITC-phelloidin stain relative to control; format: functional, cell-based; details: Oryctolagus cuniculus
[7] = Inhibition of recombinant RGGT by uncompetitive inhibition based Lineweaver-Burke plot using Rab1a as substrate
Rattus norvegicus = species: Rattus norvegicus; assay: Antiresorptive activity in Schenk growing rat model assessed as inhibition of bone resorption; format: functional
[8] = Inhibition of recombinant RGGT assessed as incorporation of [3H]GGPP into His-tagged canine rab1a after 20 mins
[9] = molecular target: T2, Farnesyl pyrophosphate synthase (Homo sapiens) (UniProt P14324); assay: Inhibition of human FPPS at 10 uM after 10 mins using [14C]IPP as substrate
T2 sequence (whole entry): T1 sequence (P14324 whole entry)

[10] = molecular target: T3, Geranylgeranyl transferase type-2 subunit alpha (Homo sapiens) (UniProt Q92696); assay: Inhibition of rabbit osteoclast rab11 prenylation after 24 hrs by Western blot analysis; details: Oryctolagus cuniculus; target entry is the homologue from another species
T3 sequence (whole entry): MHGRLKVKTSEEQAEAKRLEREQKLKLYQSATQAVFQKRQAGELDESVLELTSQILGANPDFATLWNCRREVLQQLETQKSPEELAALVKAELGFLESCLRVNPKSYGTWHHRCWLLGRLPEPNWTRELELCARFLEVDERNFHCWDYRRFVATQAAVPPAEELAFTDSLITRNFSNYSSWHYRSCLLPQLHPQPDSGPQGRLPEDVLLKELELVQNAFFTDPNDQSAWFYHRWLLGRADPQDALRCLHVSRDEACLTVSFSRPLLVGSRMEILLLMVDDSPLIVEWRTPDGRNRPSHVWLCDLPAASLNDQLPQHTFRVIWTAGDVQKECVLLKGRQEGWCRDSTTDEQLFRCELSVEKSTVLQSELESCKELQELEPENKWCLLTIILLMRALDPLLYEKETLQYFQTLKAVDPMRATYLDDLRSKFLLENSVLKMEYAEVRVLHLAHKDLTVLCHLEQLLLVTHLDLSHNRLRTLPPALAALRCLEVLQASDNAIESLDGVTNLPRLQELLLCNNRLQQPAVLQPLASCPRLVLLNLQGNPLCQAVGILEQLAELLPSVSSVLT

[11] = molecular target: T4, Geranylgeranyl pyrophosphate synthase (Homo sapiens) (UniProt O95749); assay: Inhibition of GGPPS at 1mM after 10 mins using [14C]IPP as substrate by liquid scintillation counting
T4 sequence (whole entry): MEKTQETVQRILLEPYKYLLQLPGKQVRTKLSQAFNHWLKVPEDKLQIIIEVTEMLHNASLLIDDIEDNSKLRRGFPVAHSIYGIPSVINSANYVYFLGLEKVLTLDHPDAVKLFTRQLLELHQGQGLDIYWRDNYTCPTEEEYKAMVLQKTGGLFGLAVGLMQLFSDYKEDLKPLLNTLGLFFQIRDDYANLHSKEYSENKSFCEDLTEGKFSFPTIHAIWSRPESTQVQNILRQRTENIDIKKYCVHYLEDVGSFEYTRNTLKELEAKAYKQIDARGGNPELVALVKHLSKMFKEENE

[12] = molecular target: Protein farnesyltransferase/geranylgeranyltransferase type-1 subunit alpha (Homo sapiens) (UniProt P49354); assay: Inhibition of GGTase1 assessed as incorporation of [3H]GGPP into His-tagged canine rab1a at 1 mM after 30 mins

Work on `O=P(O)(O)C(O)(Cc1cccnc1)P(=O)(O)O` yielded an LED (J774 [1]) of 12 µM and an LED (J774 [2]) of 12 µM.

With `O=C(O)C(O)(Cc1cccnc1)P(=O)(O)O` (racemic) [listing 1 of 2 here] the IC50 [3] was greater than 1000 µM, the IC50 [4] was 51.7 µM and the IC50 (J774 [5]; Mus musculus, J774, 48 h) was 2800 µM. It also gave an IC50 [6] greater than 2000 µM, an IC50 (Osteoclast) of 970 µM and a Ki [7] of 33.6 µM. For the same compound, the LED (Rattus norvegicus) was 12 mg/kg and the IC50 [8] was 32 µM.

In the case of `O=C(O)C(O)(Cc1cccnc1)P(=O)(O)O` (racemic) [listing 2 of 2 here], the LED (J774 [2]) is reported as 100 µM, the Activity [9] is reported as “inactive” and the Activity [10] is reported as 200 µM.

For `O=C(O)C(O)(Cc1cnc2ccccn12)P(=O)(O)O` (racemic), the LED (J774 [1]) was greater than 100 µM, the LED (J774 [2]) was 3 µM and the Activity [9] was “inactive”. For the same compound, the Activity [10] was 12.5 µM.

`O=C(O)C(O)(Cc1cnc2ccccn12)P(=O)(O)O` (racemic) [(2-HYDROXY-3-IMIDAZO[1,2-A]PYRIDIN-3-YL-2-PHOSPHONOPROPIONIC ACID (ENANTIONMERS)] gave an IC50 [3] greater than 10 µM, an IC50 [4] of 12.5 µM and an IC50 (J774 [5]; j774) of 47 µM. The IC50 (Osteoclast) was 330 µM and the LED (Rattus norvegicus) was 2.8 mg/kg.

With `O=C(O)C(O)(Cc1cnc2ccccn12)P(=O)(O)O` (single isomer, unassigned; (+)) the LED (J774 [1]) was 100 µM, the Activity [11] was “inactive” and the LED (J774 [2]) was 3 µM. For the same compound, the Activity [12] was “inactive”.

In the case of `O=C(O)C(O)(Cc1cnc2ccccn12)P(=O)(O)O` (single isomer, unassigned; (+)) [(2-HYDROXY-3-IMIDAZO[1,2-A]PYRIDIN-3-YL-2-PHOSPHONOPROPIONIC ACID (ENANTIONMERS)], the IC50 [4] is reported as 1.1 µM, the IC50 (J774 [5]; j774) is reported as 31 µM and the IC50 [6] is reported as greater than 800 µM. It also gave a Ki [7] of 0.211 µM and an IC50 [8] of 1.3 µM.

In the case of `O=C(O)C(O)(Cc1cccnc1)P(=O)(O)O` (single isomer, unassigned; enantiomer 1) [listing 1 of 2 here], the IC50 [4] is reported as 39 µM.

`O=C(O)C(O)(Cc1cccnc1)P(=O)(O)O` (single isomer, unassigned; enantiomer 1) [listing 2 of 2 here] showed an LED (J774 [2]) of 63 µM.

`O=C(O)C(O)(Cc1cccnc1)P(=O)(O)O` (single isomer, unassigned; enantiomer 2) [listing 1 of 2 here] gave an IC50 [4] of 150 µM.

With `O=C(O)C(O)(Cc1cccnc1)P(=O)(O)O` (single isomer, unassigned; enantiomer 2) [listing 2 of 2 here] the LED (J774 [2]) was 250 µM.

In the case of `O=C(O)C(O)(Cc1cnc2ccccn12)P(=O)(O)O` (single isomer, unassigned; enantiomer 2), the LED (J774 [1]) is reported as 4000 µM, the Activity [11] is reported as “inactive” and the LED (J774 [2]) is reported as 50 µM. For the same compound, the Activity [12] was “inactive”.

`O=C(O)C(O)(Cc1cnc2ccccn12)P(=O)(O)O` (single isomer, unassigned; enantiomer 2) [(2-HYDROXY-3-IMIDAZO[1,2-A]PYRIDIN-3-YL-2-PHOSPHONOPROPIONIC ACID (ENANTIONMERS)] showed an IC50 [4] of 67.7 µM and an IC50 (J774 [5]; j774) greater than 800 µM.

`O=P(O)(O)C(O)(Cc1cnc2ccccn12)P(=O)(O)O` [MINODRONIC ACID] gave an LED (J774 [1]) of 3 µM, an IC50 [4] greater than 1000 µM and an LED (J774 [2]) of 3 µM. It also gave an IC50 (J774 [5]; Mus musculus, J774, 48 h) of 3 µM.
